Data set [1] can be described thus: In vitro drug release from drug-vinylpolysiloxane pills/articles (simulated gastric fluid or water). The data set is classed as physicochemical. The following applies: for in vitro release from drug-VPS pills: SGF (isoniazid and rifampicin in water). The protocol:
Articles with a series of 30 pills were made so that there was 1 gram of doxycycline hyclate in 2 grams of vinylpolysiloxane. Pills were coated with either cellulose acetate butyrate (CAB) or with Eudragit RS PO. A control with no coatings was also made. The articles were immersed in simulated gastric fluid, and the cumulative release of doxycycline hyclate was measured for more than 26 days.
Thickness of coatings was tuned by increasing the spray volume.
Individual pills made of drug-VPS for doxycycline hyclate, isoniazid, ethambutol, pyrazinamide, moxifloxacin were used to evaluate long-term release kinetics in SGF. Pill formulations were incubated in a New Brunswick Innova 44 shaking incubator (Eppendorf) at 37° C. and 200 rpm in 50 mL of SGF for up to 28 days, with solution exchanges at specified time intervals. Drug concentrations were then analyzed using a High-Performance Liquid Chromatography (HPLC). Because of the lack of a validated HPLC method for evaluating isoniazid in SGF, water was used to study differences between isoniazid formulations. Three intact rifampicin devices were fabricated by loading 2 grams of drug into VPS pills. The devices were incubated in 500 mL of nanopure water for up to 26 days in a shaking incubator at 37° C. and 200 rpm, with media exchange at specified time intervals. […] The drug concentrations samples were then measured on an Infinite M200Pro (Tecan) reader (absorbance, 475 nm).
An Agilent 1260 Infinity II HPLC system (Agilent Technologies, Inc.) equipped with a Model 1260 quaternary pump, Model 1260 High Performance autosampler, Model 1260 thermostat, Model 1260 Infinity Thermostatted Column Compartment control module, and Model 1260 diode array detector was utilized. Data processing and analysis was performed using OpenLab CDS ChemStation (Agilent Technologies, Inc.). All solvents used were purchased from Sigma-Aldrich Corporation. For doxycycline hyclate, chromatographic isocratic separation was carried out on an Agilent 4.6×50 mm AdvanceBio RP-mAb SB-C8 analytical column with 3.5 μm particles, maintained at 55° C. The optimized mobile phase consisted of 20 mM dipotassium phosphate buffer and acetonitrile (pH 6 adjusted with triethylamine) [60:40 (v/v)] at a flow rate of 0.85 mL/min over a 4 min run time. The injection volume was 5 μl, and the selected ultraviolet (UV) detection wavelength was 293 nm.

For data set [2] the following is noted: pig, in vivo.
For data set [3] the following is noted: reason water was used as release medium; cited from earlier work.

The text below walks through data of patent US20190365645A1, “DRUG DELIVERY ARTICLES FOR GRAM-LEVEL DOSING” (Massachusetts Institute of Technology, priority 2018, published 2019).

Bounds are passed on as bounds.

Consider `NC(=O)c1cnccn1` [pyrazinamide], for which the “in vitro release from drug-VPS pills” value in data set [1] was “able to release”.
Consider `CC[C@@H](CO)NCCN[C@@H](CC)CO` [ethambutol], for which the “in vitro release from drug-VPS pills” value in data set [1] is “able to release”.
Same read-out and setting: the entry for `NNC(=O)c1ccncc1` [isoniazid] is “able to release”.
In the case of doxycycline hyclate, in data set [1] (articles of 30 pills, 1 gram drug in 2 grams vinylpolysiloxane, simulated gastric fluid), the “duration of drug release (cumulative release)” value is listed as “more than 26 days”. Also, the release kinetic profile result in data set [1] (formulations coated with Eudragit RS 100, SGF) was “linear kinetic profile with limited burst release”. Moreover, in data set [2], the “duration drug detectable in serum” value was “at least 28 days”; the “duration of sustained drug release, non-zero concentrations in the blood” value is recorded as “at least 7 days”; the “time after which no drug was detectable in serum” value is 3 ays; the “time to detectable serum concentrations” value is no more than 15 min.
As for `CO[C@H]1/C=C/O[C@@]2(C)Oc3c(C)c(O)c4c(O)c(c(/C=N/N5CCN(C)CC5)c(O)c4c3C2=O)NC(=O)/C(C)=C\C=C\[C@H](C)[C@H](O)[C@@H](C)[C@@H](O)[C@@H](C)[C@H](OC(C)=O)[C@@H]1C` [rifampicin], the “duration of detectable serum concentrations” value in data set [2] is reported as “for a week”. The stability in acid result in data set [3] is given as “rapidly degrades in acid”.
